Laboratory results taken from patent publication US9302999B2, “Substituted triazoles as herbicides” (E. I. DU PONT DE NEMOURS AND COMPANY, priority 2012, dated 2016).
Like-named read-outs stand apart in the source and are kept apart here.

Legend:
Type in all cases: in vivo
[1] = system: corn (Zea mays); experiment: Test C pre-/postemergence: corn
Outline: (§1)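 Visual injury scored 0–100 (100 = complete control) against untreated controls after 13–15 greenhouse days. Surfactant-containing solvent formulations applied either to soil after sowing (loam/sand) or over 1- to 4-leaf plants, 2–18 cm tall.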

[2] = system: blackgrass (Alopecurus myosuroides); experiment: Test C pre-/postemergence: blackgrass
Outline: as §1

[3] = system: galium (catchweed bedstraw, Galium aparine); experiment: Test C pre-/postemergence: galium
Outline: as §1

[4] = system: ragweed (common ragweed, Ambrosia elation); experiment: Test C pre-/postemergence: ragweed
Outline: as §1

[5] = system: large crabgrass (Digitaria sanguinalis); experiment: Test C pre-/postemergence: large crabgrass
Outline: as §1

[6] = system: morningglory (Ipomoea spp.); experiment: Test A pre-/postemergence: morningglory; conditions: for Morningglory plant response rating: 1000 g ai/ha; for pest or weed control at 125 g/ha / pest or weed control at 500 g/ha: Ipomoea, 240 h; for pest or weed control at 125 g/ha: 125 g ai/ha; for pest or weed control at 500 g/ha: 500 g ai/ha
Outline: (§2)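 Pre: directed soil spray after planting in loam + sand. Post: same formulation (non-phytotoxic solvent + surfactant) on 1–2-leaf plants, 2–10 cm. Greenhouse ~10 d; visual injury 0–100 vs untreated.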

[7] = system: pigweed (Amaranthus retroflexus); experiment: Test C pre-/postemergence: pigweed
Outline: as §1

[8] = system: wild oat (Avena fatua); experiment: Test C pre-/postemergence: wild oat
Outline: as §1

[9] = system: velvetleaf (Abutilon theophrasti); experiment: Test A pre-/postemergence: velvetleaf; conditions: for Velvetleaf plant response rating: 1000 g ai/ha; for pest or weed control at 125 g/ha / pest or weed control at 500 g/ha: Abutilon theophrasti, 240 h; for pest or weed control at 125 g/ha: 125 g ai/ha; for pest or weed control at 500 g/ha: 500 g ai/ha
Outline: as §2

[10] = system: johnsongrass (Sorghum halepense); experiment: Test C pre-/postemergence: johnsongrass
Outline: as §1

[11] = system: velvetleaf (Abutilon theophrasti); experiment: Test C pre-/postemergence: velvetleaf
Outline: as §1

[12] = system: kochia (Kochia scoparia); experiment: Test C pre-/postemergence: kochia
Outline: as §1

[13] = Postemergence, 16 g ai/ha, scale 0 to 100, 0 no effect, 100 complete control
[14] = Postemergence, 31 g ai/ha, scale 0 to 100 (0 no effect, 100 complete control)
[15] = Postemergence, 62 g ai/ha, scale 0 to 100 (0 no effect, 100 complete control)
[16] = Postemergence, 125 g ai/ha, scale 0 to 100, 0 no effect, 100 complete control
[17] = Postemergence, visual rating on 0 to 100 scale (0 no effect, 100 complete control), approximately ten days
[18] = Preemergence, 0 to 100 scale, 0 is no effect, 100 is complete control
[19] = Postemergence, 250 g ai/ha, scale 0 to 100
[20] = Preemergence, 31 g ai/ha, scale of 0 to 100, 0 is no effect, 100 is complete control
[21] = Preemergence, 62 g ai/ha, scale 0 to 100, 0 no effect, 100 complete control
[22] = Preemergence, 125 g ai/ha, scale 0 to 100, 0 no effect, 100 complete control
[23] = Preemergence, 250 g ai/ha, scale 0 to 100, 0 no effect, 100 complete control
[24] = Preemergence, 62 g ai/ha, scale of 0 to 100, 0 is no effect, 100 is complete control

For Cc1nn(-c2ccc(C(F)(F)F)cc2)nc1Cc1cccc(C(F)(F)F)c1 [Compound 124], the “Plant response rating, Corn” value [1, 13] was 5, the “Plant response rating, Corn” value [1, 14] was 20 and the “Plant response rating, Corn” value [1, 15] was 25. For the same molecule, the “Plant response rating, Corn” value [1, 16] was 25, the “Plant response rating, Blackgrass” value [2, 13] was 0 and the “Plant response rating, Blackgrass” value [2, 14] was 35. For the same molecule, the “Plant response rating, Blackgrass” value [2, 15] was 50, the “Plant response rating, Blackgrass” value [2, 16] was 85 and the “Plant response rating, Galium” value [3, 13] was 70. For the same molecule, the “Plant response rating, Galium” value [3, 14] was 70, the “Plant response rating, Galium” value [3, 15] was 80 and the “Plant response rating, Galium” value [3, 16] was 85. For the same molecule, the “Plant response rating, Ragweed” value [4, 13] was 45, the “Plant response rating, Ragweed” value [4, 14] was 50 and the “Plant response rating, Ragweed” value [4, 15] was 65. For the same molecule, the “Plant response rating, Ragweed” value [4, 16] was 65, the “Plant response rating, Crabgrass, Large” value [5, 13] was 20 and the “Plant response rating, Crabgrass, Large” value [5, 14] was 30. The “Plant response rating, Crabgrass, Large” value [5, 15] was 40, the “Plant response rating, Crabgrass, Large” value [5, 16] was 45 and the “Morningglory plant response rating” value [6, 17] was 100. The “Morningglory plant response rating” value [6, 18] was 40, the “Plant response rating, Pigweed” value [7, 13] was 75 and the “Plant response rating, Pigweed” value [7, 14] was 90. The “Plant response rating, Pigweed” value [7, 15] was 95, the “Plant response rating, Pigweed” value [7, 16] was 98 and the “Plant response rating, Oat, Wild” value [8, 13] was 20. For the same molecule, the “Plant response rating, Oat, Wild” value [8, 14] was 20, the “Plant response rating, Oat, Wild” value [8, 15] was 25 and the “Plant response rating, Oat, Wild” value [8, 16] was 35. For the same molecule, the “Velvetleaf plant response rating” value [9, 17] was 100, the “Velvetleaf plant response rating” value [9, 18] was 80 and the “Plant response rating, Johnsongrass” value [10, 13] was 5. For the same molecule, the “Plant response rating, Johnsongrass” value [10, 14] was 5, the “Plant response rating, Johnsongrass” value [10, 15] was 40 and the “Plant response rating, Johnsongrass” value [10, 16] was 45. The “Plant response rating, Velvetleaf” value [11, 13] was 45, the “Plant response rating, Velvetleaf” value [11, 14] was 45 and the “Plant response rating, Velvetleaf” value [11, 15] was 50. The “Plant response rating, Velvetleaf” value [11, 16] was 55, the “Plant response rating, Kochia” value [12, 13] was 75 and the “Plant response rating, Kochia” value [12, 14] was 80. For the same molecule, the “Plant response rating, Kochia” value [12, 15] was 80 and the “Plant response rating, Kochia” value [12, 16] was 85.

For Cc1nn(-c2ccc(F)cc2)nc1Oc1ccnc(C(F)(F)F)c1 [Compound 129, 4-[[2-(4-fluorophenyl)-5-methyl-2H-1,2,3-triazol-4-yl]oxy]-2-(trifluoromethyl)pyridine], the “Plant response rating, Corn” value [1, 14] was 10, the “Plant response rating, Corn” value [1, 15] was 15 and the “Plant response rating, Corn” value [1, 16] was 40. For the same molecule, the “Plant response rating, Corn” value [1, 19] was 65, the “Plant response rating, Corn” value [1, 20] was 0 and the “Plant response rating, Corn” value [1, 21] was 10. The “Plant response rating, Corn” value [1, 22] was 45, the “Plant response rating, Corn” value [1, 23] was 65 and the “Plant response rating, Blackgrass” value [2, 14] was 40. The “Plant response rating, Blackgrass” value [2, 15] was 60, the “Plant response rating, Blackgrass” value [2, 16] was 70 and the “Plant response rating, Blackgrass” value [2, 19] was 80. The “Plant response rating, Blackgrass” value [2, 20] was 90, the “Plant response rating, Blackgrass” value [2, 21] was 90 and the “Plant response rating, Blackgrass” value [2, 22] was 90. For the same molecule, the “Plant response rating, Blackgrass” value [2, 23] was 90, the “Plant response rating, Galium” value [3, 14] was 60 and the “Plant response rating, Galium” value [3, 15] was 85. For the same molecule, the “Plant response rating, Galium” value [3, 16] was 90, the “Plant response rating, Galium” value [3, 19] was 90 and the “Plant response rating, Galium” value [3, 20] was 85. The “Plant response rating, Galium” value [3, 24] was 100, the “Plant response rating, Galium” value [3, 22] was 100 and the “Plant response rating, Galium” value [3, 23] was 100. For the same molecule, the “Plant response rating, Ragweed” value [4, 14] was 40, the “Plant response rating, Ragweed” value [4, 15] was 40 and the “Plant response rating, Ragweed” value [4, 16] was 45. For the same molecule, the “Plant response rating, Ragweed” value [4, 19] was 45, the “Plant response rating, Ragweed” value [4, 20] was 0 and the “Plant response rating, Ragweed” value [4, 24] was 0. The “Plant response rating, Ragweed” value [4, 22] was 0, the “Plant response rating, Ragweed” value [4, 23] was 55 and the “Plant response rating, Crabgrass, Large” value [5, 14] was 20. The “Plant response rating, Crabgrass, Large” value [5, 15] was 45, the “Plant response rating, Crabgrass, Large” value [5, 16] was 65 and the “Plant response rating, Crabgrass, Large” value [5, 19] was 85. The “Plant response rating, Crabgrass, Large” value [5, 20] was 98, the “Plant response rating, Crabgrass, Large” value [5, 24] was 100 and the “Plant response rating, Crabgrass, Large” value [5, 22] was 100. For the same molecule, the “Plant response rating, Crabgrass, Large” value [5, 23] was 100, the pest or weed control at 125 g/ha ([6]; post-emergence, Postemergence, 0 to 100 scale, 0 is no effect, 100 is complete control, read-out: Morningglory plant response rating) was 100% and the pest or weed control at 500 g/ha ([6]; post-emergence, Postemergence, visual rating on 0 to 100 scale (0 no effect, 100 complete control), approximately ten days, read-out: Morningglory plant response rating) was 100%. The pest or weed control at 125 g/ha ([6]; pre-emergence, Preemergence, 0 to 100 scale where 0 is no effect and 100 is complete control, read-out: Plant response rating, Morningglory) was 50%, the pest or weed control at 500 g/ha ([6]; pre-emergence, Preemergence, 0 to 100 scale (0 no effect, 100 complete control), read-out: Plant response rating, Morningglory) was 60% and the “Plant response rating, Pigweed” value [7, 14] was 85. The “Plant response rating, Pigweed” value [7, 15] was 98, the “Plant response rating, Pigweed” value [7, 16] was 98 and the “Plant response rating, Pigweed” value [7, 19] was 100. The “Plant response rating, Pigweed” value [7, 20] was 100, the “Plant response rating, Pigweed” value [7, 24] was 100 and the “Plant response rating, Pigweed” value [7, 22] was 100. The “Plant response rating, Pigweed” value [7, 23] was 100, the “Plant response rating, Oat, Wild” value [8, 14] was 20 and the “Plant response rating, Oat, Wild” value [8, 15] was 35. For the same molecule, the “Plant response rating, Oat, Wild” value [8, 16] was 50, the “Plant response rating, Oat, Wild” value [8, 19] was 80 and the “Plant response rating, Oat, Wild” value [8, 20] was 40. The “Plant response rating, Oat, Wild” value [8, 24] was 85, the “Plant response rating, Oat, Wild” value [8, 22] was 95 and the “Plant response rating, Oat, Wild” value [8, 23] was 95. The pest or weed control at 125 g/ha ([9]; post-emergence, Postemergence, 0 to 100 scale, 0 is no effect, 100 is complete control, read-out: Velvetleaf plant response rating) was 70%, the pest or weed control at 500 g/ha ([9]; post-emergence, Postemergence, visual rating on 0 to 100 scale (0 no effect, 100 complete control), approximately ten days, read-out: Velvetleaf plant response rating) was 100% and the pest or weed control at 125 g/ha ([9]; pre-emergence, Preemergence, 0 to 100 scale where 0 is no effect and 100 is complete control, read-out: Plant response rating, Velvetleaf) was 60%. For the same molecule, the pest or weed control at 500 g/ha ([9]; pre-emergence, Preemergence, 0 to 100 scale (0 no effect, 100 complete control), read-out: Plant response rating, Velvetleaf) was 70%, the “Plant response rating, Johnsongrass” value [10, 14] was 5 and the “Plant response rating, Johnsongrass” value [10, 15] was 15. The “Plant response rating, Johnsongrass” value [10, 16] was 15, the “Plant response rating, Johnsongrass” value [10, 19] was 70 and the “Plant response rating, Johnsongrass” value [10, 20] was 25. For the same molecule, the “Plant response rating, Johnsongrass” value [10, 24] was 75, the “Plant response rating, Johnsongrass” value [10, 22] was 85 and the “Plant response rating, Johnsongrass” value [10, 23] was 95. The “Plant response rating, Velvetleaf” value [11, 14] was 45, the “Plant response rating, Velvetleaf” value [11, 15] was 45 and the “Plant response rating, Velvetleaf” value [11, 16] was 80. For the same molecule, the “Plant response rating, Velvetleaf” value [11, 19] was 100, the “Plant response rating, Velvetleaf” value [11, 20] was 0 and the “Plant response rating, Velvetleaf” value [11, 24] was 10. For the same molecule, the “Plant response rating, Velvetleaf” value [11, 22] was 45, the “Plant response rating, Velvetleaf” value [11, 23] was 95 and the “Plant response rating, Kochia” value [12, 14] was 95. The “Plant response rating, Kochia” value [12, 15] was 95, the “Plant response rating, Kochia” value [12, 16] was 98 and the “Plant response rating, Kochia” value [12, 19] was 98. For the same molecule, the “Plant response rating, Kochia” value [12, 20] was 5, the “Plant response rating, Kochia” value [12, 24] was 90 and the “Plant response rating, Kochia” value [12, 22] was 90. The “Plant response rating, Kochia” value [12, 23] was 95.
